Assay [1] relates to icilin-induced "wet-dog" shakes in Sprague Dawley rats. In words: Reversal of icilin-induced "wet-dog" shakes in rats. It counts as in vivo. The note with it: po; rat; 10 mg/kg p.o.; 1 h post-icilin.
In a further assay the target is T1, canine TRPM8 (Canis lupus familiaris, UniProt Q1A7N1).
T1 construct: expressed in transfected cells
The assay is described as follows: In vitro canine TRPM8 functional assay (icilin-induced intracellular Ca2+, FLIPR/FDSS).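 Also: intracellular Ca2+ tracked with a Ca2+-sensitive fluorescent dye, compound applied 5 min before icilin was added.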 It counts as cell-based. As to conditions: 0.200 μM compound; HEK293 cells stably expressing canine TRPM8; icilin challenge (~80% maximal response); read-out: % Inh. @ 0.200 μM.

Assay [2] concerns CCI-induced cold hypersensitivity in Sprague Dawley rats. The assay is described as follows: Chronic constriction injury (CCI)-induced neuropathic pain, acetone-induced cold hypersensitivity. Type of assay: in vivo. The note with it: po; rat CCI; 10 mg/kg p.o.; 3 h post-dose; read-out: % Inhibition (acetone-evoked paw withdrawals). The source says:
Male Sprague Dawley rats (225-450 g; n=5-8/treatment) were used to evaluate the ability of selected compounds of the Formula (I) to reverse CCI-induced cold hypersensitivity. Four loose ligatures of 4-0 chromic gut were surgically placed around the left sciatic nerve under inhalation anesthesia as described by Bennett et al. (Bennett, G. J.; Xie, Y. K. Pain 1988, 33(1), 87-107). Fourteen to 35 days following CCI surgery, subjects were placed in elevated observation chambers containing wire mesh floors and five applications of acetone (0.05 mL/application separated by approximately 5 minutes) were spritzed onto the plantar surface of the paw using a multidose syringe. An abrupt withdrawal or lifting of the paw was considered a positive response. The number of positive responses was recorded for each rat over the five trials. Following baseline withdrawal determinations, compounds of Formula (I) are administered in an appropriate vehicle, such as hydroxypropyl-β-cyclodextrin ([…]), methylcellulose, Methocel, 10% Solutol, or H2O, or the like, by the appropriate route, i.p. or p.o. The number of withdrawals were redetermined 1 to 3 h after compound administration. Results are presented as a percent inhibition of shakes, which was calculated for each subject as [1−(test compound withdrawals/pre-test withdrawals)]×100 and then averaged by treatment.

Structures are written as SMILES. Counter-ions that a name gives are not always drawn.

T1 sequence (Q1A7N1 1-1104): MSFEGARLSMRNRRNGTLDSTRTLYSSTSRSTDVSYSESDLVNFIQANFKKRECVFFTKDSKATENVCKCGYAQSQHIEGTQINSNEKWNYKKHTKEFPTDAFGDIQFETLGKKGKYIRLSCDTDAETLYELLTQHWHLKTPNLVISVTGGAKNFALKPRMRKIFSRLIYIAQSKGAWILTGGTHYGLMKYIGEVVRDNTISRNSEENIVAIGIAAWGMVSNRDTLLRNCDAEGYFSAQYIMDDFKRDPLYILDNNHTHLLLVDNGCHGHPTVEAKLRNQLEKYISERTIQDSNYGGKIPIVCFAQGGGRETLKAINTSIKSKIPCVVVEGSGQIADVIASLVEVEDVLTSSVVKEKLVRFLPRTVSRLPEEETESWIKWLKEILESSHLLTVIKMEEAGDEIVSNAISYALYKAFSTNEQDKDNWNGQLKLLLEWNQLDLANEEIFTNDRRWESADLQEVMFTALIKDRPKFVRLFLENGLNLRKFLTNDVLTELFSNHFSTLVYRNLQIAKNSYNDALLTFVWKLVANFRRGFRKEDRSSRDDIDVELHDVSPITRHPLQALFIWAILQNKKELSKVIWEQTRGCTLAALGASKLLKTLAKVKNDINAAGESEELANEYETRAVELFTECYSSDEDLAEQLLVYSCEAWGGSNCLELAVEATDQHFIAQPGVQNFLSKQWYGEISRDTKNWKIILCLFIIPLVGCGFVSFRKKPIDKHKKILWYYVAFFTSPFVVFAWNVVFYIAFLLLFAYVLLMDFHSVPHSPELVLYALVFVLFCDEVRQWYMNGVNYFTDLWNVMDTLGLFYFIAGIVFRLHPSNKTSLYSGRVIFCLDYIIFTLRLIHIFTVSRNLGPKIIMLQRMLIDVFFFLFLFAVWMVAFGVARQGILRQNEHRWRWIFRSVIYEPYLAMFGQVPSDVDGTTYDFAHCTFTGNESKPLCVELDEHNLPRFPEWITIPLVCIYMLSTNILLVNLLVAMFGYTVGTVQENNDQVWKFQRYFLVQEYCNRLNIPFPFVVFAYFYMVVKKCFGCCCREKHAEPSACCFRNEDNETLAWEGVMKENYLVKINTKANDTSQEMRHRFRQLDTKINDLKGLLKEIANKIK

For `FC(F)(F)c1cc(-c2ccccc2Cl)cc2nc(C3=NOC4(CCCCC4)C3)[nH]c12` [Cpd 30, 3-[5-(2-Chloro-phenyl)-7-trifluoromethyl-1H-benzimidazol-2-yl]-1-oxa-2-aza-spiro[4.5]dec-2-ene hydrochloride], the inhibition in vivo at 10 mg/kg is more than 98% in assay [1] and 62.9% in assay [2]. The inhibition at 0.2 µM at canine TRPM8 came to 97%.
On the same counts, the results for `FC(F)(F)Oc1ccccc1-c1cc(C(F)(F)F)c2[nH]c(C3=NOC4(CCCCC4)C3)nc2c1` [Cpd 51, 3-[5-(2-Trifluoromethoxyphenyl)-7-trifluoromethyl-1H-benzimidazol-2-yl]-1-oxa-2-aza-spiro[4.5]dec-2-ene hydrochloride] are more than 98%, 57.1% and 97%.
Take `Fc1ccccc1-c1cc(C(F)(F)F)c2[nH]c(C3=NOC4(CCCCC4)C3)nc2c1` [Cpd 53, 3-[5-(2-Fluorophenyl)-7-trifluoromethyl-1H-benzimidazol-2-yl]-1-oxa-2-aza-spiro[4.5]dec-2-ene hydrochloride]: the inhibition in vivo at 10 mg/kg in assay [1] was more than 98%; in assay [2], 42.9%. On canine TRPM8, the inhibition at 0.2 µM stood at 97%.
